From US20090081318A1, “TREATMENT OF NEUROADS USING INHIBITORS OF GLYCOGEN SYNTHASE KINASE (GSK)-3” (priority 2005, published 2009)
Values joined by “and” are separate entries in the source; they are usually repeats but may differ in a detail not shown here. Identical values can stand only once. One block for each compound: values may come before it.

Experiments:
[1] = target: GSK-3; conditions: cited from earlier work
[2] = system: subjects with HIV-associated cognitive impairment; assay: Neuropsychological evaluations, VPA adjunctive therapy trial; assay type: in vivo, human
Description: (§1) Twenty-two eligible subjects, six without cognitive impairment and 16 with cognitive impairment, were enrolled and block-randomized within impairment strata to receive 250 mg of VPA or placebo twice daily. Cognitive impairment was defined as performance at least one standard deviation below the mean on two or more neuropsychological tests, or at least two standard deviations below the mean on one neuropsychological test, using normative data previously applied by the Dana cohort (Dana 1996). Subjects were evaluated at 2, 6, and 10 weeks for adverse clinical and laboratory experiences. Neuropsychological evaluations (see Table 3) were performed at screening, week 6, and week 10 along with global assessments of functioning (subject and investigator), the Fatigue Severity Scale, and the Center for Epidemiologic Studies Depression Scale. A neurological examination and CD4+/CD8+ counts were performed at screening and week 10, while plasma HIV viral load was measured at baseline and week 10.
(§2) Tolerability was assessed based on the proportion of subjects able to complete the 10-week study at the original dose of study medication. Safety measures included the occurrences of adverse events and abnormal results on laboratory tests. Measures of efficacy included changes from baseline in: neuropsychological test scores; the Investigator Clinical Global Impression; MRI indices; functioning; and mood. The study was designed to provide approximately 80% power to detect a 45% difference in tolerability (i.e. 95% versus 50%) between the placebo and VPA groups using a one-sided Fisher's exact test at the 5% level of significance.
Changes from baseline were assessed using paired t-tests. Comparisons between treatment arms were based on unequal-variance two-sample t-tests for continuous variables, and Fisher's Exact Tests for categorical variables. Comparisons between treatment arms were adjusted for baseline values using Analysis of Covariance. Primary statistical analyses were performed according to the intention-to-treat principle, using the last-observation-carried-forward imputation strategy for subjects who prematurely dropped out of the study. Secondary analyses excluded such subjects.

[3] = set-up: species or system human; conditions: in vivo
Description: as §1
Tolerability was assessed based on the proportion of subjects able to complete the 10-week study at the original dose of study medication. Safety measures included the occurrences of adverse events and abnormal results on laboratory tests. […]

[4] = system: HIV; assay: Plasma HIV viral load; assay type: in vivo; conditions: individual subjects on VPA (three subjects; the first changed antiretroviral therapy); listed as VPA
Description: as §1

[5] = system: subjects with HIV-associated cognitive impairment; assay: Investigator Clinical Global Impression; conditions: human, in vivo
Description: as §2

[6] = target: CDK1 (Homo sapiens, UniProt P06493); conditions: cited from earlier work
[7] = system: GSK-3; conditions: acting primarily through beta3-adrenoreceptors; similar extent as insulin; Moule et al. 1997; cited from earlier work
[8] = impaired participants, n = 9, VPA 250 mg twice daily
[9] = impaired participants, valproic acid minus placebo mean change to week 10, adjusted for baseline, negative = better on valproic acid
[10] = impaired participants, valproic acid minus placebo mean change to week 10, adjusted for baseline, positive = better on valproic acid

Chain of CDK1 (P06493 whole entry, species assumed): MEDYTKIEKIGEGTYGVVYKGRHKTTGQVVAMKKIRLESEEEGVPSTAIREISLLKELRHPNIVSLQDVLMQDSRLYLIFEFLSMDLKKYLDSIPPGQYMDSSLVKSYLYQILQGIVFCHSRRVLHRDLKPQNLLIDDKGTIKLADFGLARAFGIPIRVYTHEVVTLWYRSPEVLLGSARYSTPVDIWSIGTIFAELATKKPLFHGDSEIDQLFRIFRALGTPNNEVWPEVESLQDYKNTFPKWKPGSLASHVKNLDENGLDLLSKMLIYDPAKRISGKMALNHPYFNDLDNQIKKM
Chain of CDK1 (P14635 whole entry partner, species assumed): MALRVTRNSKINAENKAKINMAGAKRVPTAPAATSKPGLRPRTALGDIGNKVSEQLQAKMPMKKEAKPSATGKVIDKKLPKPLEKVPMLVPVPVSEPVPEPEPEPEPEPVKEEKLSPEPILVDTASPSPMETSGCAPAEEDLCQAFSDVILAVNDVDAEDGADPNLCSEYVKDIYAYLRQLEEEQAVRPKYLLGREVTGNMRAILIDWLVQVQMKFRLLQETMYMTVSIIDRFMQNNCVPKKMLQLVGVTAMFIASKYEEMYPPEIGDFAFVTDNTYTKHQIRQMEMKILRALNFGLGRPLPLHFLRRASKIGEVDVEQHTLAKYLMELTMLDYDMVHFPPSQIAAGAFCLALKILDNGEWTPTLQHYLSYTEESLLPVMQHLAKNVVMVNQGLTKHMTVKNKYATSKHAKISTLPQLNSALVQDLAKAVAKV

Compound: GRPRTTS*FAE [Pseudosubstrate peptide]
- Ki ([1]; read-out: Inhibition potency Ki): 700 µM

- Increase in liver function tests [3]: < 2.5 times the upper limit of normal
Compound: CCCC(CCC)C(=O)O [Valproic Acid, Valproic acid]
- Composite Neuropsychological Z-score, mean change from baseline to week 10 [2, 8]: 4.56
- Digit Symbol, mean change from baseline to week 10 [2, 8]: 6.56
- Grooved Pegboard Dominant Hand, mean change from baseline to week 10 [2, 8]: -9.33 s
- Grooved Pegboard Nondominant Hand, mean change from baseline to week 10 [2, 8]: -6.44 s
- Mean Reaction Time Choice, mean change from baseline to week 10 [2, 8]: -43.38 ms
- Mean Reaction Time Sequential, mean change from baseline to week 10 [2, 8]: -8.63 ms
- Rey Auditory Verbal Memory Correct Recognition, mean change from baseline to week 10 [2, 8]: 0.11
- Rey Auditory Verbal Memory Delayed Recall, mean change from baseline to week 10 [2, 8]: 1.11
- Rey Auditory Verbal Memory Recall after Interference, mean change from baseline to week 10 [2, 8]: −0.22
- Rey Auditory Verbal Memory Trial 5, mean change from baseline to week 10 [2, 8]: 0.78
- Timed Gait, mean change from baseline to week 10 [2, 8]: -0.65 s
- Grooved Pegboard Dominant Hand, Treatment Effect [2, 9]: -10.56 s
- Grooved Pegboard Nondominant Hand, Treatment Effect [2, 9]: -4.53 s
- Mean Reaction Time Choice, Treatment Effect [2, 9]: 5.67 ms
- Mean Reaction Time Sequential, Treatment Effect [2, 9]: 29.08 ms
- Timed Gait, Treatment Effect [2, 9]: -0.25 s
- Composite Neuropsychological Z-score, Treatment Effect [2, 10]: 2.31
- Digit Symbol, Treatment Effect [2, 10]: 5.02
- Rey Auditory Verbal Memory Correct Recognition, Treatment Effect [2, 10]: 1.16
- Rey Auditory Verbal Memory Delayed Recall, Treatment Effect [2, 10]: 1.82
- Rey Auditory Verbal Memory Recall after Interference, Treatment Effect [2, 10]: 1.57
- Rey Auditory Verbal Memory Total, Treatment Effect [2, 10]: 2.22
- Rey Auditory Verbal Memory Trial 5, Treatment Effect [2, 10]: −0.38
- Between group differences on independent neuropsychological tests and composite z-score ([2]; impaired subjects, VPA vs placebo): not statistically significant
- Adverse experience [3]: mild new onset of acid reflux
- Change in plasma HIV RNA from baseline to week 10 [4]: 33,300 to 316 copies/ml and 100,000 to 93,900 copies/ml and 32,500 to 24,700 copies/ml
- Investigator clinical global impression, placebo vs VPA group [5]: No significant difference

Compound: [Be+2] [Beryllium]
- IC50 ([1]; read-out: Inhibition potency IC50): 6 µM
- IC50 [6]: 50 µM

Compound: CC(C)NCC(O)c1ccc(O)c(O)c1 (centres unmarked) [Isoproterenol]
- Decrease of GSK-3 activity [7]: approximately 50%
